Reference: patent publication US20090221642A1, “MUSCARINIC RECEPTOR AGONISTS, COMPOSITIONS, METHODS OF TREATMENT THEREOF, AND PROCESSES FOR PREPARATION THEREOF-176” (AstraZeneca AB, priority 2008, published 2009)
pEC50: −log10 of the molar value.

What was measured:
[1] = target: T1, cloned human M2 receptor (human Muscarinic receptor subtype 2) (Homo sapiens, UniProt P08172); test: hM2 receptor GTPγS binding; format: biochemical; details: CHO cell membranes expressing hM2; [35S]GTPγS binding; read-out: hM2 EC50
T1 construct: purchased Perkin-Elmer RBHM2M; host or cells: Chinese hamster ovary cells (CHO) membranes
T1 sequence (P08172 1-466): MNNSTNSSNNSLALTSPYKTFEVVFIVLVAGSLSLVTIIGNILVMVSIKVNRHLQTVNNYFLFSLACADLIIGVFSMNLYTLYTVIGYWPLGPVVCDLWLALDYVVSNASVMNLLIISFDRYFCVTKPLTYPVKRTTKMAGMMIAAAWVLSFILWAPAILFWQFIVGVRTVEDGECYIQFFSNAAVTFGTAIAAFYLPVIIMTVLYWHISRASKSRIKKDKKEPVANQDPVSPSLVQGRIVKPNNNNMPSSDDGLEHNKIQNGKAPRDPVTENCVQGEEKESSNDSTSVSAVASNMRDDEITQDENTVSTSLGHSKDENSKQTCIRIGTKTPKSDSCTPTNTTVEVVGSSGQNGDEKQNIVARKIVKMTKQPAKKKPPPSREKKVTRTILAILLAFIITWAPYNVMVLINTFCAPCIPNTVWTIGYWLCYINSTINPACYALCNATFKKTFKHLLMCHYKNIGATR
Procedure: hM2 Receptor GTPγS Binding
Membranes produced from Chinese hamster ovary cells (CHO) expressing the cloned human M2 receptor (human Muscarinic receptor subtype 2, gene bank access NM_000739), are obtained from Perkin-Elmer (RBHM2M). The membranes are thawed at 37° C., passed 3 times through a 23-gauge blunt-end needle, diluted in the GTPγS binding buffer (50 mM Hepes, 20 mM NaOH, 100 mM NaCl, 1 mM EDTA, 5 mM MgCl2, pH 7.4, 100 μM DTT). The EC50, IC50 and Emax of the compounds of the invention are evaluated from 10-point dose-response curves (three fold concentration range) done in 60 μl in 384-well non-specific binding surface plate (Corning). Ten microliters from the dose-response curves plate (5× concentration) are transferred to another 384 well plate containing 25 μl of the following: 5 μg of hM2 membranes, 500 μg of Flashblue beads (Perkin-Elmer) and GDP 25 μM. An additional 15 μl containing 3.3× (60,000 dpm) of GTPγ^35S (0.4 nM final) are added to the wells resulting in a total well volume of 50 μl. Basal and maximal stimulated [^35S]GTPγS binding are determined in absence and presence of 30 μM final of acetylcholine agonist. The membranes/beads mix are pre-incubated for 15 minutes at room temperature with 25 μM GDP prior to distribution in plates (12.5 μM final). The reversal of acetylcholine-induced stimulation (2 μM final) of [^35S]GTPγS binding is used to assay the antagonist properties (IC50) of the compounds. The plates are incubated for 60 minutes at room temperature then centrifuged at 400 rpm for 5 minutes. The radioactivity (cpm) is counted in a Trilux (Perkin-Elmer).
(§1) Values of EC50, IC50 and Emax are obtained using sigmoidal fits of a non-linear curve-fitting program (XLfit version 4.2.2 Excel add-in version 4.2.2 build 18 math 1Q version 2.1.2 build 18) of percent stimulated [^35S]GTPγS binding vs. log(molar ligand). All pEC50 and plC50 values are reported as arithmetic means ±standard error of mean of ‘n’ independent experiments.

[2] = target: T2, cloned human M4 receptor (human Muscarinic receptor subtype 4) (Homo sapiens, UniProt P08173); test: hM4 receptor GTPγS binding; format: biochemical; details: CHO cell membranes expressing hM4; [35S]GTPγS binding; read-out: hM4 EC50
T2 construct: purchased Perkin-Elmer RBHM4M; host or cells: Chinese hamster ovary cells (CHO) membranes
T2 sequence (P08173 1-479): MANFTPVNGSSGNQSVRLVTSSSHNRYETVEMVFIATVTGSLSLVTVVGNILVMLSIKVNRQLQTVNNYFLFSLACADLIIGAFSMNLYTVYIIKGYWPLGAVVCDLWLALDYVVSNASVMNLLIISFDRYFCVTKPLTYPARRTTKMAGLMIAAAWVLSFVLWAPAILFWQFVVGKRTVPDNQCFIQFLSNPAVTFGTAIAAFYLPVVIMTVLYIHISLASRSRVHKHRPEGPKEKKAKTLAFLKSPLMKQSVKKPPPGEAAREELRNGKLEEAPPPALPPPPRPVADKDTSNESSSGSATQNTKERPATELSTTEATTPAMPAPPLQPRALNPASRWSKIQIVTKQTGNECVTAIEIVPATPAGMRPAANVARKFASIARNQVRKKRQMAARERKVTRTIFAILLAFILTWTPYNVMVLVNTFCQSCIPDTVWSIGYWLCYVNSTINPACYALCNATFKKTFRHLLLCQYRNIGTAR
Procedure: hM4 Receptor GTPγS Binding
Membranes produced from Chinese hamster ovary cells (CHO) expressing the cloned human M4 receptor (human Muscarinic receptor subtype 4, gene bank access NM_000741), are obtained from Perkin-Elmer (RBHM4M). The membranes are thawed at 37° C., passed 3 times through a 23-gauge blunt-end needle, diluted in the GTPγS binding buffer (50 mM Hepes, 20 mM NaOH, 100 mM NaCl, 1 mM EDTA, 5 mM MgCl2, pH 7.4, 100 μM DTT). The EC50, IC50 and Emax of the compounds of the invention are evaluated from 10-point dose-response curves (three fold concentration range) done in 60 μl in 384-well non-specific binding surface plate (Corning). Ten microliters from the dose-response curves plate (5× concentration) are transferred to another 384 well plate containing 25 μl of the following: 10 μg of hM4 membranes, 500 μg of Flashblue beads (Perkin-Elmer) and GDP 40 μM. An additional 15 μl containing 3.3× (60,000 dpm) of GTPγ^35S (0.4 nM final) are added to the wells resulting in a total well volume of 50 μl. Basal and maximal stimulated [^35S]GTPγS binding are determined in absence and presence of 30 μM final of acetylcholine agonist. The membranes/beads mix are pre-incubated for 15 minutes at room temperature with 40 μM GDP prior to distribution in plates (20 μM final). The reversal of acetylcholine-induced stimulation (10 μM final) of [^35S]GTPγS binding is used to assay the antagonist properties (IC50) of the compounds. The plates are incubated for 60 minutes at room temperature then centrifuged at 400 rpm for 5 minutes. The radioactivity (cpm) is counted in a Trilux (Perkin-Elmer).
as §1

SMILES | pEC50 [1] | pEC50 [2]
CC1(N2CCC(n3c(=O)[nH]c4ccc(F)cc43)CC2)CCN(C(=O)OCCF)C1 (single isomer, unassigned) [Example 53, 2-fluoroethyl 3-(4-(6-fluoro-2-oxo-2,3-dihydro-1H-benzo[d]imidazol-1-yl)piperidin-1-yl)-3-methylpyrrolidine-1-carboxylate] | 5.79 | 5.25
CCOC(=O)N1CCC(C)(N2CCC(n3c(=O)[nH]c4cc(F)c(C)cc43)CC2)C1 (single isomer, unassigned) [Example 55, ethyl 3-(4-(5-fluoro-6-methyl-2-oxo-2,3-dihydro-1H-benzo[d]imidazol-1-yl)piperidin-1-yl)-3-methylpyrrolidine-1-carboxylate] | 6.50 | 5.77
CCOC(=O)N1CCC(C)(N2CCC(n3c(=O)[nH]c4cc(F)c(C)cc43)CC2)C1 (single isomer, unassigned) [Example 56, ethyl 3-(4-(5-fluoro-6-methyl-2-oxo-2,3-dihydro-1H-benzo[d]imidazol-1-yl)piperidin-1-yl)-3-methylpyrrolidine-1-carboxylate] | 7.62 | 6.62
CCOC(=O)N1CCC(C)(N2CCC(n3c(=O)[nH]c4cc(F)c(F)cc43)CC2)C1 (single isomer, unassigned) [Example 57, ethyl 3-(4-(5,6-difluoro-2-oxo-2,3-dihydro-1H-benzo[d]imidazol-1-yl)piperidin-1-yl)-3-methylpyrrolidine-1-carboxylate] | 6.37 | 5.66
CCOC(=O)N1CCC(C)(N2CCC(n3c(=O)[nH]c4cc(F)c(F)cc43)CC2)C1 (single isomer, unassigned) [Example 58, ethyl 3-(4-(5,6-difluoro-2-oxo-2,3-dihydro-1H-benzo[d]imidazol-1-yl)piperidin-1-yl)-3-methylpyrrolidine-1-carboxylate] | 5.68 | 5.01
COC(=O)N1CCC(C)(N2CCC(n3c(=O)[nH]c4cc(F)c(F)cc43)CC2)C1 (single isomer, unassigned) [Example 60, methyl 3-(4-(5,6-difluoro-2-oxo-2,3-dihydro-1H-benzo[d]imidazol-1-yl)piperidin-1-yl)-3-methylpyrrolidine-1-carboxylate] | 5.99 | 5.29
CC1(N2CCC(n3c(=O)[nH]c4cc(F)c(F)cc43)CC2)CCN(C(=O)OCCF)C1 (single isomer, unassigned) [Example 61, 2-fluoroethyl 3-(4-(5,6-difluoro-2-oxo-2,3-dihydro-1H-benzo[d]imidazol-1-yl)piperidin-1-yl)-3-methylpyrrolidine-1-carboxylate] | 5.77 | 5.35
COC(=O)N1CCC(C)(N2CCC(N3C(=O)Cc4ccc(C)cc43)CC2)C1 (single isomer, unassigned) [Example 67, methyl 3-methyl-3-(4-(6-methyl-2-oxoindolin-1-yl)piperidin-1-yl)pyrrolidine-1-carboxylate] | 5.33 | 4.82
COC(=O)N1CCC(C)(N2CCC(N3C(=O)Cc4ccc(C)cc43)CC2)C1 (single isomer, unassigned) [Example 68, methyl 3-methyl-3-(4-(6-methyl-2-oxoindolin-1-yl)piperidin-1-yl)pyrrolidine-1-carboxylate] | 5.94 | 5.21
CCOC(=O)N1CCC(C)(N2CCC(N3C(=O)Cc4ccc(C)cc43)CC2)C1 (single isomer, unassigned) [Example 69, ethyl 3-methyl-3-(4-(6-methyl-2-oxoindolin-1-yl)piperidin-1-yl)pyrrolidine-1-carboxylate] | 5.73 | 5.05
CCOC(=O)N1CCC(C)(N2CCC(N3C(=O)Cc4ccc(C)cc43)CC2)C1 (single isomer, unassigned) [Example 70, ethyl 3-methyl-3-(4-(6-methyl-2-oxoindolin-1-yl)piperidin-1-yl)pyrrolidine-1-carboxylate] | 6.35 | 5.75
CCOC(=O)N1CCC(C)(N2CCC(N3C(=O)Cc4ccccc43)CC2)C1 (single isomer, unassigned) [Example 72, ethyl 3-methyl-3-(4-(2-oxoindolin-1-yl)piperidin-1-yl)pyrrolidine-1-carboxylate] | 6.02 | < 4.05
CCOC(=O)N1CCC(C)(N2CCC(N3C(=O)Cc4ccccc43)CC2)C1 (single isomer, unassigned) [Example 73, ethyl 3-methyl-3-(4-(2-oxoindolin-1-yl)piperidin-1-yl)pyrrolidine-1-carboxylate] | 5.21 | < 4.05
CCOC(=O)N1CCC(C)(N2CCC(N3C(=O)Cc4ccc(F)cc43)CC2)C1 (single isomer, unassigned) [Example 74, ethyl 3-(4-(6-fluoro-2-oxoindolin-1-yl)piperidin-1-yl)-3-methylpyrrolidine-1-carboxylate] | 5.87 | 5.44
CCOC(=O)N1CCC(C)(N2CCC(N3C(=O)Cc4ccc(F)cc43)CC2)C1 (single isomer, unassigned) [Example 75, ethyl 3-(4-(6-fluoro-2-oxoindolin-1-yl)piperidin-1-yl)-3-methylpyrrolidine-1-carboxylate] | 5.58 | < 4.72
COC(=O)N1CCC(C)(N2CCC(N3C(=O)Cc4ccc(F)cc43)CC2)C1 (single isomer, unassigned) [Example 76, methyl 3-(4-(6-fluoro-2-oxoindolin-1-yl)piperidin-1-yl)-3-methylpyrrolidine-1-carboxylate] | 5.46 | < 4.05
CCOC(=O)N1CCC(C)(N2CCC(N3C(=O)Cc4cc(F)ccc43)CC2)C1 (single isomer, unassigned) [Example 79, ethyl 3-(4-(5-fluoro-2-oxoindolin-1-yl)piperidin-1-yl)-3-methylpyrrolidine-1-carboxylate] | 5.95 | 5.36
